Measurements taken from publication PMC8851638 (ACS Omega, 2022).
Values after ≈ are worked out from the molar mass of the structure shown. Values joined by “and” are separate entries in the source; they are usually repeats but may differ in a detail not shown here. Equal entries are not always repeated.

How the values were obtained:
S. aureus (MDR00231) [1] = experiment: Agar well-diffusion antimicrobial sensitivity assay; format: cell-based, Staphylococcus aureus; settings: for Inhibition Zone (IZ): S. aureus, 100 mg/mL in DMSO, 50 μL per well, ± SD
[2] = tested on: S. epidermidis (MDR00223); experiment: as above; format: cell-based, Staphylococcus epidermidis; settings: for Inhibition Zone (IZ): S. epidermidis, 100 mg/mL in DMSO, 50 μL per well, ± SD
B. subtilis (MDR00423) [3] = experiment: as above; format: cell-based; settings: 100 mg/mL in DMSO, 50 μL per well, ± SD
E. coli (MDR00501) [4] = experiment: as above; format: cell-based; settings: for Inhibition Zone (IZ): E. coli, 100 mg/mL in DMSO, 50 μL per well, ± SD
A. baumannii (MDR00521) [5] = experiment: as above; format: cell-based; settings: 100 mg/mL in DMSO, 50 μL per well, ± SD
K. pneumoniae (MDR00244) [6] = experiment: as above; format: cell-based; settings: 100 mg/mL in DMSO, 50 μL per well, ± SD
[7] = tested on: C. albicans100 (MDR00100); experiment: as above; format: cell-based, Candida albicans; settings: for Inhibition Zone (IZ): C. albicans100, 100 mg/mL in DMSO, 50 μL per well, ± SD
[8] = tested on: C. albicans200 (MDR00200); experiment: as above; format: cell-based, Candida albicans; settings: for Inhibition Zone (IZ): C. albicans200, 100 mg/mL in DMSO, 50 μL per well, ± SD
S. aureus (MDR00231) [9] = experiment: MIC and MBC by broth microdilution; format: cell-based, Staphylococcus aureus
[10] = tested on: S. epidermidis (MDR00223); experiment: MIC and MBC by broth microdilution; format: cell-based, Staphylococcus epidermidis
B. subtilis (MDR00423) [11] = experiment: MIC and MBC by broth microdilution; format: cell-based
E. coli (MDR00501) [12] = experiment: MIC and MBC by broth microdilution; format: cell-based
A. baumannii (MDR00521) [13] = experiment: MIC and MBC by broth microdilution; format: cell-based; settings: ratio in parentheses
K. pneumoniae (MDR00244) [14] = experiment: MIC and MBC by broth microdilution; format: cell-based; settings: ratio in parentheses
[15] = tested on: C. albicans100 (MDR00100); experiment: MIC and MFC by broth microdilution; format: cell-based, Candida albicans
[16] = tested on: C. albicans200 (MDR00200); experiment: MIC and MFC by broth microdilution; format: cell-based, Candida albicans
S. aureus biofilm = experiment: Staphylococcus biofilm mass reduction; format: cell-based; settings: at their MIC
S. epidermidis biofilm = experiment: Staphylococcus biofilm mass reduction; format: cell-based; settings: at their MIC
S. aureus [17] = experiment: Single-step resistance selection; format: cell-based, Staphylococcus aureus; settings: 4 × MIC, 48 h
S. epidermidis = experiment: Single-step resistance selection; format: cell-based, Staphylococcus epidermidis; settings: 4 × MIC, 48 h
B. subtilis = experiment: Single-step resistance selection; format: cell-based; settings: 4 × MIC, 48 h
E. coli [18] = experiment: Single-step resistance selection; format: cell-based; settings: 4 × MIC, 48 h
A. baumannii [19] = experiment: Single-step resistance selection; format: cell-based; settings: 4 × MIC, 48 h
K. pneumoniae = experiment: Single-step resistance selection; format: cell-based; settings: 4 × MIC, 48 h
C. albicans100 = experiment: Single-step resistance selection; format: cell-based, Candida albicans; settings: 4 × MIC, 48 h
C. albicans200 [20] = experiment: Single-step resistance selection; format: cell-based, Candida albicans; settings: 4 × MIC, 48 h
S. aureus [21] = experiment: Checkerboard combination assay with Ciprofloxacin; format: cell-based, Staphylococcus aureus
E. coli [22] = experiment: Checkerboard combination assay with Ciprofloxacin; format: cell-based
A. baumannii [23] = experiment: Checkerboard combination assay with Ciprofloxacin; format: cell-based
C. albicans200 [24] = experiment: Checkerboard combination assay with Ketoconazole; format: cell-based, Candida albicans
RBCs = experiment: Hemolytic assay; format: cell-based; settings: human RBCs; compounds 1.0 mg/mL; Triton X-100 0.1% v/v; 37 °C, 35 min
E. coli DNA gyrase = E. coli DNA gyrase (Escherichia coli, UniProt P0AES4+P0AES6); experiment: DNA gyrase inhibition; format: biochemical
[25] = biological target: T1, dihydrofolate reductase (DHFR) (Homo sapiens, UniProt P00374); experiment: DHFR inhibition; format: biochemical
T1 sequence (P00374 1-187): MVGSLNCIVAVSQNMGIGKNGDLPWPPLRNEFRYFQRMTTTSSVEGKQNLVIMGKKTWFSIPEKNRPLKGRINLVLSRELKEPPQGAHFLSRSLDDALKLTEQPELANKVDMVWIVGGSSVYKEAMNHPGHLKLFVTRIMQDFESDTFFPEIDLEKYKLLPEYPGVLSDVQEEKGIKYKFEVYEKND

[26] = In vitro cytotoxicity on normal cell line; format: cell-based, mouse; settings: mouse, BNL normal liver cells
[27] = tested on: BNL: mouse normal liver cells; experiment: In vitro cytotoxicity on normal cell line; format: cell-based
[28] = In vitro cytotoxicity on normal cell line; format: cell-based, green monkey; settings: green monkey, Vero kidney cells
[29] = tested on: Vero: green monkey kidney; experiment: In vitro cytotoxicity on normal cell line; format: cell-based
[30] = In vitro cytotoxicity on normal cell line; format: cell-based, rat; settings: rat, H9C2 heart/myocardium cells
[31] = tested on: H9C2: rat heart/myocardium; experiment: In vitro cytotoxicity on normal cell line; format: cell-based
Gram-negative bacteria = experiment: MIC broth microdilution, Gram-negative panel; format: cell-based; settings: Gram-negative bacteria used in this study
[32] = tested on: clinical pathogenic isolates; experiment: Single-step resistance selection, whole panel; format: cell-based; settings: 4 × MIC
[33] = Candida albicans, read-out: Inhibition Zone (IZ)

E. coli DNA gyrase, sequence (P0AES4 whole entry, one chain of several): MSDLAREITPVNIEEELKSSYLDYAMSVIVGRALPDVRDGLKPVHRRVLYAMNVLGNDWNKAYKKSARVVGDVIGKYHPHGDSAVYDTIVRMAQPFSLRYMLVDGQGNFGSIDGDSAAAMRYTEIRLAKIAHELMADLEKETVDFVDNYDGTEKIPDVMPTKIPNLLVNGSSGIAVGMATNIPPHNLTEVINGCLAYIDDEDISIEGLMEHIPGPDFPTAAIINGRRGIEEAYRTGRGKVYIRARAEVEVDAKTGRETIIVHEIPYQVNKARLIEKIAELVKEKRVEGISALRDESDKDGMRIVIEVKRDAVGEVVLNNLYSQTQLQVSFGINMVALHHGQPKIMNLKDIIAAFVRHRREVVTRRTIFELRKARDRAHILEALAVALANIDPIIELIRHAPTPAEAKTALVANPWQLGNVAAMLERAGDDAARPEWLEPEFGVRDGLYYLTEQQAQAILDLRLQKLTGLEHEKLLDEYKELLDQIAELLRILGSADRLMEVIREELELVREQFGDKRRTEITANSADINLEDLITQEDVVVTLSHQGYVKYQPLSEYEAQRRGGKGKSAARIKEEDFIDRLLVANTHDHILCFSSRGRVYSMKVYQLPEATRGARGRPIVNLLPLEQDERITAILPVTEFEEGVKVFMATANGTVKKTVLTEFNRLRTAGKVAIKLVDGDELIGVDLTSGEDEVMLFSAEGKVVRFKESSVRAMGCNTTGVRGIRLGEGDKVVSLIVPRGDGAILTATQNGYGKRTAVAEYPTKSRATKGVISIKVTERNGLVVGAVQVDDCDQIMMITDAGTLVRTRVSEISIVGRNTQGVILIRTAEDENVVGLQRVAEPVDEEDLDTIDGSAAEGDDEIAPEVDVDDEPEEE

N#CC=c1[nH]c(=O)c(=Cc2cn(-c3ccccc3)nc2-c2ccccc2)s1 [Compound 3a, 2-(5-((1,3-Diphenyl-1H-pyrazol-4-yl)methylene)-4-oxothiazolidin-2-ylidene)acetonitrile]
Inhibition Zone (IZ) (S. aureus (MDR00231) [1]): -ve | Inhibition Zone (IZ) [2]: -ve | Inhibition Zone (IZ) (B. subtilis (MDR00423) [3]): -ve | Inhibition Zone (IZ) (E. coli (MDR00501) [4]): -ve | Inhibition Zone (IZ) (A. baumannii (MDR00521) [5]): -ve | Inhibition Zone (IZ) (K. pneumoniae (MDR00244) [6]): -ve | Inhibition Zone (IZ) [7]: -ve | Inhibition Zone (IZ) [8]: -ve

Cc1c(NC(=O)CC2=NC(=O)CS2)c(=O)n(-c2ccccc2)n1C [Compound 10, N-(1,5-Dimethyl-3-oxo-2-phenyl-2,3-dihydro-1H-pyrazol-4-yl)-2-(4-oxo-4,5-dihydrothiazol-2-yl)acetamide]
zone of inhibition at 100000 µg/mL (S. aureus (MDR00231) [1]; Staphylococcus aureus, read-out: Inhibition Zone (IZ)): 27 ± 0.21 mm | zone of inhibition at 100000 µg/mL ([2]; Staphylococcus epidermidis, read-out: Inhibition Zone (IZ)): 26 ± 0.4 mm | zone of inhibition at 100000 µg/mL (E. coli (MDR00501) [4]; Escherichia coli, read-out: Inhibition Zone (IZ)): 25 ± 0.22 mm | zone of inhibition at 100000 µg/mL [7, 33]: 28 ± 0.88 mm | zone of inhibition at 100000 µg/mL [8, 33]: 30 ± 0.55 mm | MBC/MIC (S. aureus (MDR00231) [9]; S. aureus, ratio in parentheses): 1 | MIC (S. aureus (MDR00231) [9]; Staphylococcus aureus, read-out: MIC (mean ± SEM), S. aureus, broth microdilution): 0.95 ± 0.2 µg/mL (≈ 2.76 µM) | MBC/MIC ([10]; S. epidermidis, ratio in parentheses): 1 | MIC ([10]; Staphylococcus epidermidis, read-out: MIC (mean ± SEM), S. epidermidis, broth microdilution): 0.97 ± 0.4 µg/mL (≈ 2.82 µM) | MBC/MIC (B. subtilis (MDR00423) [11]; B. subtilis, ratio in parentheses): 2 | MIC (B. subtilis (MDR00423) [11]; Bacillus subtilis, read-out: MIC (mean ± SEM), B. subtilis, broth microdilution): 0.98 ± 0.1 µg/mL (≈ 2.85 µM) | MBC/MIC (E. coli (MDR00501) [12]; E. coli, ratio in parentheses): 1 | MIC (E. coli (MDR00501) [12]; Escherichia coli, read-out: MIC (mean ± SEM), E. coli, broth microdilution): 0.46 ± 0.4 µg/mL (≈ 1.34 µM) | MBC/MIC (A. baumannii (MDR00521) [13]): 0.5 | MBC/MIC (K. pneumoniae (MDR00244) [14]): 1 | MFC/MIC ([15]; C. albicans100, ratio in parentheses): 2 | MIC ([15]; Candida albicans, read-out: MIC (mean ± SEM), C. albicans100, broth microdilution): 0.95 ± 0.3 µg/mL (≈ 2.76 µM) | MFC/MIC ([16]; C. albicans200, ratio in parentheses): 1 | MIC ([16]; Candida albicans, read-out: MIC (mean ± SEM), C. albicans200, broth microdilution): 0.47 ± 0.1 µg/mL (≈ 1.36 µM) | reduction of biofilm formation (S. aureus biofilm): 55.6% | reduction of biofilm formation (S. epidermidis biofilm): 53.3% | Single-step resistance frequency (mutation frequency) (S. aureus [17]): 2.41 × 10^–8 | Single-step resistance frequency (mutation frequency) (S. epidermidis): 3.00 × 10^–8 | Single-step resistance frequency (mutation frequency) (B. subtilis): 3.50 × 10^–8 | Single-step resistance frequency (mutation frequency) (E. coli [18]): 2.60 × 10^–8 | Single-step resistance frequency (mutation frequency) (A. baumannii [19]): 2.53 × 10^–8 | Single-step resistance frequency (mutation frequency) (K. pneumoniae): 2.61 × 10^–8 | Single-step resistance frequency (mutation frequency) (C. albicans100): 3.33 × 10^–8 | Single-step resistance frequency (mutation frequency) (C. albicans200 [20]): 3.50 × 10^–8 | combination effect (S. aureus [21]): S (S: synergism) | fractional inhibitory concentration index (FICI) (S. aureus [21]): 0.5 | combination effect (E. coli [22]): S (S: synergism) | fractional inhibitory concentration index (FICI) (E. coli [22]): 0.5 | combination effect (A. baumannii [23]): S (S: synergism) | fractional inhibitory concentration index (FICI) (A. baumannii [23]): 0.5 | combination effect (C. albicans200 [24]): S (S: synergism) | fractional inhibitory concentration index (FICI) (C. albicans200 [24]): 0.5 | %lysis of RBCs (RBCs): 11.66% and 11.66 ± 0.231% | IC50 (E. coli DNA gyrase): 28.88 ± 0.12 µM | IC50 [25]: 1.42 ± 0.23 µM | IC50 at 72 h [26]: 98.9 ± 1.54 µM | Selectivity index against DHFR ([27]; IC50 of BNL / IC50 of DHFR): 69.64 | Selectivity index against DNA gyrase ([27]; IC50 of BNL / IC50 of DNA gyrase): 3.42 | IC50 at 72 h [28]: 70.06 ± 0.34 µM | Selectivity index against DHFR ([29]; IC50 of Vero / IC50 of DHFR): 49.33 | Selectivity index against DNA gyrase ([29]; IC50 of Vero / IC50 of DNA gyrase): 2.42 | IC50 at 72 h [30]: 99.8 ± 1.84 µM | Selectivity index against DHFR ([31]; IC50 of H9C2 / IC50 of DHFR): 70.26 | Selectivity index against DNA gyrase ([31]; IC50 of H9C2 / IC50 of DNA gyrase): 3.45 | MIC, range over panel (Gram-negative bacteria): 0.43 to 0.98 µg/mL | mutation frequency, range over panel [32]: 2.41 × 10^–8 to 3.50 × 10^–8

Cc1c(NN=C2SC3=C(C#N)C(c4ccccc4)C(C#N)=C(N)N3C2=O)c(=O)n(-c2ccccc2)n1C (stereo not drawn) [Compound 16a, 5-Amino-2-(2-(1,5-dimethyl-3-oxo-2-phenyl-2,3-dihydro-1H-pyrazol-4-yl)hydrazono)-3-oxo-7-phenyl-2,3-dihydro-7H-thiazolo[3,2-a]pyridine-6,8-dicarbonitrile]
Inhibition Zone (IZ) (S. aureus (MDR00231) [1]): -ve | Inhibition Zone (IZ) [2]: -ve | Inhibition Zone (IZ) (B. subtilis (MDR00423) [3]): -ve | Inhibition Zone (IZ) (E. coli (MDR00501) [4]): -ve | Inhibition Zone (IZ) (A. baumannii (MDR00521) [5]): -ve | Inhibition Zone (IZ) (K. pneumoniae (MDR00244) [6]): -ve | Inhibition Zone (IZ) [7]: -ve | Inhibition Zone (IZ) [8]: -ve

Cc1c(NN=C2SC3=C(C#N)C(c4ccc(Cl)cc4)C(C#N)=C(N)N3C2=O)c(=O)n(-c2ccccc2)n1C (stereo not drawn) [Compound 16b, 5-Amino-7-(4-chlorophenyl)-2-(2-(1,5-dimethyl-3-oxo-2-phenyl-2,3-dihydro-1H-pyrazol-4-yl)hydrazono)-3-oxo-2,3-dihydro-7H-thiazolo[3,2-a]pyridine-6,8-dicarbonitrile]
Inhibition Zone (IZ) (S. aureus (MDR00231) [1]): -ve | Inhibition Zone (IZ) [2]: -ve | Inhibition Zone (IZ) (B. subtilis (MDR00423) [3]): -ve | Inhibition Zone (IZ) (E. coli (MDR00501) [4]): -ve | Inhibition Zone (IZ) (A. baumannii (MDR00521) [5]): -ve | Inhibition Zone (IZ) (K. pneumoniae (MDR00244) [6]): -ve | Inhibition Zone (IZ) [7]: -ve | Inhibition Zone (IZ) [8]: -ve
